Test results reported in the NIST ThermoML archive (doi:10.1021/je4004977).
± gives the expanded uncertainty stated by the source.

Settings: for viscosity / mass density: 101.33 kPa; for viscosity / mass density / vapor or sublimation pressure: Liquid; for viscosity: Capillary tube (Ostwald / Ubbelohde) method; for surface tension liquid-gas: Drop volume; for mass density: Pycnometric method; for vapor or sublimation pressure: Closed cell (Static) method

CC(O)COC(C)COC(C)COC(C)CO (stereo not drawn) [2-[2-[2-(2-hydroxypropoxy)propoxy]propoxy]-1-propanol]
viscosity (288.15 K): 105.44 ± 1.4 mPa·s
viscosity (293.15 K): 67.81 ± 0.43 mPa·s
surface tension liquid-gas (298.15 K): 34.3 ± 0.2 mN/m
mass density (298.15 K): 1019.6 ± 0.3 kg/m3
viscosity (299.15 K): 44.89 ± 0.24 mPa·s
viscosity (303.15 K): 35.66 ± 0.2 mPa·s
surface tension liquid-gas (308.15 K): 33.4 ± 0.2 mN/m
viscosity (308.15 K): 27.85 ± 0.17 mPa·s
mass density (308.15 K): 1013.7 ± 0.3 kg/m3
viscosity (313.15 K): 22.48 ± 0.15 mPa·s
surface tension liquid-gas (318.15 K): 32.6 ± 0.2 mN/m
viscosity (318.15 K): 17.97 ± 0.13 mPa·s
mass density (318.15 K): 1007.9 ± 0.4 kg/m3
viscosity (323.15 K): 14.32 ± 0.12 mPa·s
surface tension liquid-gas (328.15 K): 31.8 ± 0.2 mN/m
viscosity (328.15 K): 11.58 ± 0.12 mPa·s
mass density (328.15 K): 1001.3 ± 0.4 kg/m3
viscosity (333.15 K): 9.39 ± 0.11 mPa·s
viscosity (338.15 K): 7.65 ± 0.11 mPa·s
mass density (338.15 K): 995.4 ± 0.4 kg/m3
viscosity (344.15 K): 6.04 ± 0.11 mPa·s
surface tension liquid-gas (348.15 K): 30.2 ± 0.2 mN/m
viscosity (348.15 K): 5.22 ± 0.1 mPa·s
mass density (348.15 K): 988.8 ± 0.4 kg/m3
viscosity (353.15 K): 4.42 ± 0.1 mPa·s
mass density (353.15 K): 985.1 ± 0.4 kg/m3
viscosity (358.15 K): 3.84 ± 0.1 mPa·s
mass density (358.15 K): 982.5 ± 0.5 kg/m3
viscosity (363.15 K): 3.38 ± 0.1 mPa·s
mass density (363.15 K): 979 ± 0.5 kg/m3
surface tension liquid-gas (368.15 K): 28.5 ± 0.2 mN/m
viscosity (368.15 K): 3 ± 0.1 mPa·s
mass density (368.15 K): 975.5 ± 0.5 kg/m3
viscosity (373.15 K): 2.62 ± 0.1 mPa·s
surface tension liquid-gas (378.15 K): 27.7 ± 0.2 mN/m
viscosity (378.15 K): 2.28 ± 0.1 mPa·s
viscosity (383.15 K): 1.9 ± 0.1 mPa·s
mass density (383.15 K): 965.4 ± 0.5 kg/m3
viscosity (388.15 K): 1.48 ± 0.1 mPa·s
viscosity (393.15 K): 1.02 ± 0.1 mPa·s
mass density (393.15 K): 958.7 ± 0.5 kg/m3
surface tension liquid-gas (398.15 K): 26.1 ± 0.2 mN/m
mass density (403.15 K): 951.4 ± 0.5 kg/m3
surface tension liquid-gas (408.15 K): 25.2 ± 0.2 mN/m
vapor or sublimation pressure (409.85 K): 0.01 kPa
mass density (413.15 K): 944.3 ± 0.6 kg/m3
surface tension liquid-gas (418.15 K): 24.4 ± 0.2 mN/m
mass density (423.15 K): 937 ± 0.6 kg/m3
surface tension liquid-gas (428.15 K): 23.6 ± 0.2 mN/m
mass density (433.15 K): 928.9 ± 0.6 kg/m3
surface tension liquid-gas (438.15 K): 22.7 ± 0.2 mN/m
mass density (443.15 K): 919.4 ± 0.6 kg/m3
surface tension liquid-gas (448.15 K): 21.9 ± 0.2 mN/m
surface tension liquid-gas (458.15 K): 21.1 ± 0.2 mN/m
vapor or sublimation pressure (462.55 K): 2.68 ± 0.03 kPa
surface tension liquid-gas (468.15 K): 20.2 ± 0.2 mN/m
vapor or sublimation pressure (480.15 K): 5.34 ± 0.03 kPa
vapor or sublimation pressure (486.15 K): 6.66 ± 0.03 kPa
vapor or sublimation pressure (492.15 K): 8.02 ± 0.03 kPa
vapor or sublimation pressure (500.15 K): 10.72 ± 0.04 kPa
vapor or sublimation pressure (507.15 K): 13.36 ± 0.04 kPa
vapor or sublimation pressure (513.15 K): 16.05 ± 0.04 kPa
vapor or sublimation pressure (518.15 K): 18.79 ± 0.05 kPa
vapor or sublimation pressure (522.15 K): 21.34 ± 0.05 kPa
vapor or sublimation pressure (527.15 K): 24.02 ± 0.05 kPa
vapor or sublimation pressure (530.15 K): 26.71 ± 0.06 kPa
vapor or sublimation pressure (537.15 K): 32.05 ± 0.06 kPa
vapor or sublimation pressure (543.15 K): 37.42 ± 0.07 kPa
vapor or sublimation pressure (545.15 K): 40.02 ± 0.08 kPa
vapor or sublimation pressure (550.15 K): 45.37 ± 0.09 kPa
vapor or sublimation pressure (554.15 K): 50.69 ± 0.1 kPa
vapor or sublimation pressure (556.15 K): 53.36 ± 0.1 kPa
vapor or sublimation pressure (560.15 K): 58.74 ± 0.11 kPa
vapor or sublimation pressure (564.15 K): 64.02 ± 0.12 kPa
vapor or sublimation pressure (567.15 K): 69.28 ± 0.13 kPa
vapor or sublimation pressure (570.15 K): 74.63 ± 0.14 kPa
vapor or sublimation pressure (575.15 K): 83.34 ± 0.15 kPa
vapor or sublimation pressure (582.15 K): 101.02 ± 0.18 kPa
